Measurements as given in PMC8513079 (Molecules, 2021).
“Also recorded” adds a separate entry of the source. Like-named read-outs stand apart in the source and are kept apart here.

Key:
[1] = target: T1, DOR (T7-tag-DOR) in HEK293 cells (Homo sapiens, UniProt P41143); experiment: cADDis cAMP assay, DOR; type: cell-based
T1 construct: T7-tag; expressed in transfected cells

[2] = target: T2, MOR/DOR heteromer (Halotag-MOR/T7-tag-DOR) in HEK293 cells (Homo sapiens, UniProt P35372+P41143); experiment: cADDis cAMP assay, MOR/DOR heteromer; type: cell-based
T2 construct: HaloTag; T7-tag; expressed in transfected cells
T2 sequence (P35372 whole entry): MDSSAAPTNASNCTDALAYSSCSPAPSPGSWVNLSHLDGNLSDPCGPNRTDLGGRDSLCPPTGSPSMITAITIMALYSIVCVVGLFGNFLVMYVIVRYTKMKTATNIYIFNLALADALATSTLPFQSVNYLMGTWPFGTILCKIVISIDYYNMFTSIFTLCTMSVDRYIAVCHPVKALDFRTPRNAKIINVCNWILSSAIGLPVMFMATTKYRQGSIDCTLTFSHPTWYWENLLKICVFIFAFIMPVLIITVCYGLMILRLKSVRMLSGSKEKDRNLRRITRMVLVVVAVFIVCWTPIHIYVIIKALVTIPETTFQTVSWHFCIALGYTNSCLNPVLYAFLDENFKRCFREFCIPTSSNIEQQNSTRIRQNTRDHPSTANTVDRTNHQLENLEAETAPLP
T2 sequence (P41143 whole entry): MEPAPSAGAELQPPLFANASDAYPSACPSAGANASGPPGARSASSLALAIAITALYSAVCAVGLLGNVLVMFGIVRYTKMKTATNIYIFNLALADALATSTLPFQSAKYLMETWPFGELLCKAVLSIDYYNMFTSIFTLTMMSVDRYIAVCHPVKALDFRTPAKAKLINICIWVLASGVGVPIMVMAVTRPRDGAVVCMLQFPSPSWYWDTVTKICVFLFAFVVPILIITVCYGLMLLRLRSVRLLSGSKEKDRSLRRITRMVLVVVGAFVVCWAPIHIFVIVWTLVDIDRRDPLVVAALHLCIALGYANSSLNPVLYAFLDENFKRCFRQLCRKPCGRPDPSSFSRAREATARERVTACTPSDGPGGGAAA

DOR (CHO-K1 OPRD1) = experiment: PathHunter β-arrestin recruitment assay, DOR; type: cell-based; conditions: 37 °C; for β-arrestin recruitment, DOR, in words: PathHunter, compared with 10^−5 M SNC-80, 90 min, n = 3–6
[3] = target: T3, KOR (Halotag-KOR) in HEK293 cells (Homo sapiens, UniProt P41145); experiment: CellKey impedance assay, antagonist mode, KOR; type: cell-based; conditions: combined with U-50488H (10^−11–10^−5 M); negative control at 10^−5 concentration; n = 3–4
T3 construct: HaloTag; expressed in transfected cells
T3 sequence (P41145 whole entry): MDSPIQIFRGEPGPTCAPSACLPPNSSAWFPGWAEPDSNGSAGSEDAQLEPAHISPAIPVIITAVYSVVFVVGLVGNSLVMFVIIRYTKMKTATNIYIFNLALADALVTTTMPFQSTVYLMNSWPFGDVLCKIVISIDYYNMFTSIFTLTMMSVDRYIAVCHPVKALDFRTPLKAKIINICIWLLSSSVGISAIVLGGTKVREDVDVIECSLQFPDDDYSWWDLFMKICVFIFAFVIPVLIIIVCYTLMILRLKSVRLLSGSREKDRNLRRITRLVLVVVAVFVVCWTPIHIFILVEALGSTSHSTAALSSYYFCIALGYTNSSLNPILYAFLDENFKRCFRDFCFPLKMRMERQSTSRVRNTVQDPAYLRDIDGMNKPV

DOR [4] = conditions: rubiscolin-5 compared with rubiscolin-6; cited from earlier work
Text: (§1) In view of the results of our cAMP assay, rubiscolins can be considered DOR-biased agonists, consistent with previous reports. […] Indeed, there is a structural ...

DOR [5] = experiment: G-protein bias at DOR, cADDis cAMP versus PathHunter β-arrestin; type: cell-based; conditions: concluded from cADDis cAMP and PathHunter β-arrestin assays
[6] = target: T3, KOR (Halotag-KOR) in HEK293 cells; experiment: cell-based; conditions: HEK293, read-out: Emax, cAMP assay, KOR (Table 1)
[7] = target: MOR (Halotag-MOR) in HEK293 cells (Homo sapiens, UniProt P35372); experiment: cell-based; type: cell-based
Sequence of MOR (Halotag-MOR) in HEK293 cells (P35372 whole entry): as the sequence (P35372 whole entry) above

receptor = conditions: rubiscolin-6 versus rubiscolin-5; cited from earlier work
Text: as §1

[8] = rubiscolin-6 versus rubiscolin-5; cited from earlier work
Text: as §1

MOR (OPRM1) = experiment: PathHunter β-arrestin recruitment assay, MOR; type: cell-based; conditions: compared with 10^−5 M DAMGO, 90 min, 37 °C, n = 3–6
[9] = HEK293, read-out: Emax, cAMP assay, DOR (Table 1)
[10] = HEK293, read-out: Emax, cAMP assay, DOR (Table 2)
[11] = HEK293, read-out: Emax, cAMP assay, MOR (Table 1)
[12] = HEK293, read-out: Emax, cAMP assay, MOR (Table 2)
[13] = cADDis cAMP assay, HEK293 T7-tag-DOR

T1 sequence (P41143 whole entry): as the sequence (P41143 whole entry) above

Compound | G-protein bias / agonist type at DOR (DOR [5]) | β-arrestin recruitment, DOR, in words (DOR (CHO-K1 OPRD1)) | EC50 [1] | Emax [1, 9] | Emax [1, 10] | Emax [6] | Emax [7, 11] | Emax [7, 12] | effect through G-protein-mediated pathway (cAMP), DOR, in words [1, 13] | also measured
C[C@@H](NC(=O)[C@@H](N)Cc1ccc(O)cc1)C(=O)NCC(=O)N(C)[C@@H](Cc1ccccc1)C(=O)NCCO [DAMGO, D-Ala(2)-N-Me-Phe(4)-Gly-ol(5)-enkephalin, reference compound] |  |  |  |  |  |  |  |  |  | Emax ([1]; HEK293; read-out: Emax, cAMP assay, DOR (Table 1)): 90.9 ± 8.9%; Emax ([1]; HEK293; read-out: Emax, cAMP assay, DOR (Table 2)): 90.9 ± 8.9%; Emax ([2]; relative to 10^−5 M ML335, cADDis sensor, 50 μM forskolin, 28 °C, 40 min reading, 10^−11–10^−5 M, means ± S.E.M. (n = 6–8), Figure 6, + p < 0.05 vs ML335, read-out: Emax, cAMP assay, MOR/DOR (Table 2)): 91.1 ± 5.4%
C=CCN1C[C@H](C)N([C@H](c2ccc(C(=O)N(CC)CC)cc2)c2cccc(OC)c2)C[C@H]1C [SNC-80, (+)-4-[(aR)-a-((2S,5R)-4-allyl-2,5-dimethyl-1-piperazinyl)-3-methoxybenzyl]-N,N-diethylbenzamide, reference compound] |  |  |  |  |  |  |  |  |  | Emax, β-arrestin recruitment, DOR (DOR (CHO-K1 OPRD1); relative to 10^−5 M SNC-80, 90 min stimulation, luminescence, 10^−11–10^−5 M, means ± S.E.M. (n = 3–6), Figure 5B): 100.0 ± 2.6%
Oc1ccc2c3c1O[C@H]1c4[nH]c5c(c4C[C@@]4(O)[C@@H](C2)N(CC2CC2)CC[C@]314)C[C@@]1(O)[C@H]2Cc3ccc(O)c4c3[C@@]1(CCN2CC1CC1)[C@H]5O4 [norBNI, norbinaltorphimine] |  |  |  |  |  |  |  |  |  | antagonistic effect, CellKey, KOR [3]: completely suppressed the agonistic effects of the positive control
H-YPLDL-OH [Rubiscolin-5, H-Tyr-Pro-Leu-Asp-Leu-OH] | G-protein-biased DOR full agonists without affecting MOR and KOR | the most irrelevant with regard to the activity through the β-arrestin-mediated pathway; also recorded: equivalently negligible | 0.501 µM | 78.4 ± 6.7% | 78.4 ± 6.7% | 9.6 ± 9% | 27.5 ± 5.5% | 27.5 ± 5.5% |  | G-protein bias (bias factor), previous study (DOR [4]): more G-protein-biased than rubiscolin-6
H-YPLDLF-OH [Rubiscolin-6, H-Tyr-Pro-Leu-Asp-Leu-Phe-OH] | G-protein-biased DOR full agonists without affecting MOR and KOR | the most irrelevant with regard to the activity through the β-arrestin-mediated pathway; also recorded: equivalently negligible | 0.316 µM | 103 ± 4.1% | 103 ± 4.1% | 39.8 ± 20.5% | 14.3 ± 3.2% | 14.3 ± 3.2% | robust effect on DOR at 10^−5 concentration; also recorded: relatively stronger than rubiscolin-5 in activating the G-protein-mediated intracellular pathway | receptor affinity relative to rubiscolin-5 (receptor): higher receptor affinity; potency in analgesia relative to rubiscolin-5 [8]: about twice as potent in analgesia as rubiscolin-5
ML335 [reference compound] |  | partially recruited β-arrestin through both MOR and DOR |  |  |  |  |  |  | full agonist for both MOR and DOR | β-arrestin recruitment, MOR, in words (MOR (OPRM1)): partially recruited β-arrestin through both MOR and DOR; pEC50, cAMP assay, DOR (Table 2) ([1]; -LogEC50; HEK293 T7-tag-DOR; means ± S.E.M. (n = 6–8), Figure 6; # p < 0.05 vs SNC-80): 7.5 ± 0.1 ^# M; Emax, cAMP assay, DOR (Table 2) ([1]; relative to 10^−5 M SNC-80; HEK293 T7-tag-DOR; forskolin-stimulated; 10^−11–10^−5 M; means ± S.E.M. (n = 6–8), Figure 6; # p < 0.05 vs SNC-80): 111.6 ± 3.6%; pEC50, cAMP assay, MOR/DOR (Table 2) ([2]; -LogEC50, means ± S.E.M. (n = 6–8), Figure 6, + p < 0.05 vs ML335): 7.0 ± 0.1 M; effect through G-protein-mediated pathway (cAMP), MOR/DOR heteromer, in words ([2]; cADDis cAMP assay, compared with ML335): full agonist of MOR/DOR; Emax, cAMP assay, MOR/DOR (Table 2) ([2]; relative to 10^−5 M ML335, cADDis sensor, 50 μM forskolin, 28 °C, 40 min reading, 10^−11–10^−5 M, means ± S.E.M. (n = 6–8), Figure 6, + p < 0.05 vs ML335): 100.0 ± 4.2%; Emax, cAMP assay, MOR (Table 2) [7]: 112.5 ± 5.3%; effect through G-protein-mediated pathway (cAMP), MOR, in words [7]: full agonist for both MOR and DOR; pEC50, cAMP assay, MOR (Table 2) [7]: 7.6 ± 0.1 M
